Source: patent publication US9458187B2, “Methods for treatment of inflammatory conditions using S-[4-(3-fleuro-3-methylbutyryloxy)but-2-ynyl]6α, 9α-difluoro-17α-(furan-2-yl) carbonyloxy-11β-hydroxy-16α-methyl-3-oxoandrosta-1,4-diene-17β-carbothioate” (Sun Pharma Advanced Research Company Limited, priority 2013, dated 2016)

How the values were obtained:
[1] = test system: intraocular pressure (IOP); test: Effect on intraocular pressure (IOP); assay type: in vivo, rabbits; settings: 40 μl ophthalmic, 10 instillations daily for 10 days; FIG. 4
Procedure: IOP measurement was performed 1 hr after instillation of the last dose (results are represented in FIG. 4—Effect of ophthalmic steroids on-IOP in rabbits).

[2] = target: T1, Human Glucocorticoid receptor (Homo sapiens, UniProt P04150); test: Human glucocorticoid receptor binding (in vitro), [3H]dexamethasone radioligand
T1 construct: expressed in transfected cells; host or cells: human HeLa cells
T1 sequence (P04150 1-777): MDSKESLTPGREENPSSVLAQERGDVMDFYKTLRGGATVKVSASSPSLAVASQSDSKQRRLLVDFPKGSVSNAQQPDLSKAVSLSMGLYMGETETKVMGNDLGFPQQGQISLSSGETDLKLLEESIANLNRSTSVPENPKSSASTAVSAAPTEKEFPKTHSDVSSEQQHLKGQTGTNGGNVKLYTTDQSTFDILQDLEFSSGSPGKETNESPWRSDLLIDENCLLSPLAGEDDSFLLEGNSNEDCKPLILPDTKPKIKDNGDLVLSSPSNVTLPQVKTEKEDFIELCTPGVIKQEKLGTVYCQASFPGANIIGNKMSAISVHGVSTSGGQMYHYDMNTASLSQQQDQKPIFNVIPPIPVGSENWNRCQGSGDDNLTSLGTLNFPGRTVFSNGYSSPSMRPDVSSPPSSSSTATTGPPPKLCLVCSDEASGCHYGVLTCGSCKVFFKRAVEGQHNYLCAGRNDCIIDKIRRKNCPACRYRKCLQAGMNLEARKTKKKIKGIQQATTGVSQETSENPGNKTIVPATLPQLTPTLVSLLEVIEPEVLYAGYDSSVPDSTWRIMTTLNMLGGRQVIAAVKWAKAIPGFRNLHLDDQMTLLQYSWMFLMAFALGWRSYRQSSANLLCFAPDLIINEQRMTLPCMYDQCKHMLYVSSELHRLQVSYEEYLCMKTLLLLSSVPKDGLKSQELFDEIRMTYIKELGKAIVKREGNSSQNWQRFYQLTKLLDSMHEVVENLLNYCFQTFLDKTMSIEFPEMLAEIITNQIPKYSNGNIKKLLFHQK
Procedure: The activity of test compounds on glucocorticoid receptor was assessed using radioligand binding assays.
The % inhibition was evaluated using a single concentration of test compound and the corresponding radiolabeled ligand. Results are presented as the percent inhibition of specific binding. The values are average of duplicate determinations for each concentration.

[3] = test system: Sephadex-induced lung edema; test: Sephadex-induced lung edema; assay type: in vivo, SD rats; settings: Rattus norvegicus; i.t., 24 hrs and 2 hrs prior to Sephadex; read-out: ED50 Lung edema inhibition
Procedure: (§1) Sephadex® G-200 was prepared in sterile saline (10 mg/ml) and allowed to swell for at least 3 days at room temperature. Test compounds were administered intratracheally at 24 hrs and 2 hrs prior to intratracheal administration of Sephadex® (5 mg/kg) under light ether anesthesia. Vehicle control animals were administered vehicle instead of Sephadex®. At 24 hr after Sephadex® instillation, lung and thymus were excised from individual animals and weighed. Wet weights of lungs and thymus were corrected for 100 g of initial body weight. The percentage increase in lung weight caused by Sephadex® and its inhibitions by the compounds, were calculated. The percentage inhibitions of thymus compared to vehicle control group were also calculated

[4] = Sephadex-induced lung edema; assay type: in vivo, SD rats; settings: Sprague-Dawley, rat, thymus, other: intratracheal; i.t., 24 hrs and 2 hrs prior to Sephadex; read-out: ED50 Thymus involution
Procedure: as §1

cotton pellet granuloma = test: Cotton pellet granuloma test; assay type: in vivo, SD rats
Procedure: SD rats were used for assessing anti-inflammatory activity of test compound using cotton pellet granuloma method. Sterilized cotton pellets weighing 20 mg were prepared. Test compounds were dissolved in acetone so as to get the required quantity for each cotton pellet in 500 μl. Different pellets were impregnated with 500 μl of acetone to contain required quantity of test compounds and allowed to dry. Vehicle control pellets were impregnated with 500 μl acetone.
Rats were made into different groups. Two cotton pellets were surgically implanted into the scapular region of each rat. On sixth day of such implantation, pellets along with granuloma were taken out. Thymus gland was also separated from each animal and weighed. The pellets with granuloma were dried for 20 hrs at 60° C. and weighed. Mean weights of dry granuloma and thymus, body weight gain/100 g body weights were calculated.

Aldosterone receptor = target: T2, Aldosterone receptor (Rattus norvegicus, UniProt P22199); test: Steroidal receptor binding screen, aldosterone
T2 construct: aldosterone (Wistar rat kidney); from tissue; host or cells: Wistar rat kidney
T2 sequence (P22199 1-981): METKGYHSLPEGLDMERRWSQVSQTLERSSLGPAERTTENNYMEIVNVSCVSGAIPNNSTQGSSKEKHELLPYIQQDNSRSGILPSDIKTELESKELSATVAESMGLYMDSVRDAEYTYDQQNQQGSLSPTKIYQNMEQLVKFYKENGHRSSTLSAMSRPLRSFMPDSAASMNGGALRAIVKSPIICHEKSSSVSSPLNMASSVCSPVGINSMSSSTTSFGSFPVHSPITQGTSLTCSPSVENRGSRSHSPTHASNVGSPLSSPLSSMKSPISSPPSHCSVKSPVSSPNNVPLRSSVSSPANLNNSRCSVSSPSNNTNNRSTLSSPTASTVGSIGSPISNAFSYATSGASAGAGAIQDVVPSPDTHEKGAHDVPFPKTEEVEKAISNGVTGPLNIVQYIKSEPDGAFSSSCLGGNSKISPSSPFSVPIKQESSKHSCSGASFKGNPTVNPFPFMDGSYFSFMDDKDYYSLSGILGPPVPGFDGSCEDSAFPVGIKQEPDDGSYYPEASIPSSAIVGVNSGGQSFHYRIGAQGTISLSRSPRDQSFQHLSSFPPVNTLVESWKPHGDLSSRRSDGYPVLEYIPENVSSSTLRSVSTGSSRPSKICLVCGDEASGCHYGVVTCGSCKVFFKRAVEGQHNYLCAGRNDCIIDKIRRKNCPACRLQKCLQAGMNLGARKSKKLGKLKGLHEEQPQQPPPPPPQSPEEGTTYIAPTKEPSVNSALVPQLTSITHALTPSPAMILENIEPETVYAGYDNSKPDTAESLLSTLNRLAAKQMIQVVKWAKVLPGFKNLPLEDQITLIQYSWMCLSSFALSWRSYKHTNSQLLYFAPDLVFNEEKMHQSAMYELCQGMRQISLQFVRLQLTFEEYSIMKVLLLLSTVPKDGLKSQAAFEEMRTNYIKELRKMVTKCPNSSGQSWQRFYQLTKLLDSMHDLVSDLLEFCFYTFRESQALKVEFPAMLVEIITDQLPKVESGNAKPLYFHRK
From the text: For determination of binding to other related steroidal receptors by compound of the present invention cloned receptors from cells indicated in the parentheses were used: estrogen Erα/Erβ and progesterone (human recombinant insect Sf9), testosterone (human LnCAP) and aldosterone (Wistar rat kidney).

C[C@@H]1CC2C3C[C@H](F)C4=CC(=O)C=C[C@]4(C)[C@@]3(F)[C@@H](O)C[C@]2(C)[C@@]1(OC(=O)c1ccco1)C(=O)SCC#CCOC(=O)CC(C)(C)F (stereo partly drawn) [Formula I, S-[4-(3-Fluoro-3-methylbutyryloxy)but-2-ynyl]6α,9α-difluoro-17α-(furan-2-yl)carbonyloxy-11β-hydroxy-16α-methyl-3-oxoandrosta-1,4-diene-17β-carbothioate]
intraocular pressure (IOP) [1]: insignificant (comparable to placebo)
IC50 [2]: 2.3 nM
Ki [2]: 1.24 nM
potency and selectivity towards human glucocorticoid receptor ([2]; compared with aldosterone, estrogen, progesterone and testosterone receptors): good potency and selectivity
ED50 [3]: 0.094 mg/kg
ED50 at 24 h [4]: 8.7 mg/kg
Mean % Inhibition of Granuloma A (cotton pellet granuloma; 100 mcg/pellet): 58.13%
Thymus wt. (% Decrease) B (cotton pellet granuloma; 100 mcg/pellet): 4.67%
thymus involution and body weight gain (systemic side effect markers) (cotton pellet granuloma; even at 100 mcg per pellet): insignificant
IC50 (Aldosterone receptor): 328 nM
Ki (Aldosterone receptor): 256 nM
